Data on two compounds can be found in patent publication US20210244028A1, “TREATMENT FOR REMOVING ECTOPARASITES FROM FISH” (priority 2018, published 2021).

“And” between values parts separate entries of the source, which are not always exact repeats. Equal entries are not always repeated.

Assay [1] has as its system Salmon lice. In words: Bath treatment of lice-infected Atlantic salmon, percent lice removed (Example 7). Format: in vivo. Particulars: 30 minutes, duplicate, 3 fish per test. Here is the method: To determine the concentration- and time-dependence of imidacloprid treatment in vivo, Atlantic salmon (average of 320.9 g) were challenged with imidacloprid in seawater ([…] salinity) at 12° C. The water level in the tank was lowered and aeration was employed during administration of the active. The salmon louse copepodid culture was counted and adjusted to obtain a target level of around 40 copepodids per fish in the challenge tank at each challenge time point.
Salmon lice on the fish were counted using standard methods. Only lice on the fish's outer surface, not including gills and oral/buccal cavities, were investigated.
Numbers of dissociated lice in tank water or attached to the tank walls were recorded. Lice in the tank water were collected and assessed for ability to attach by suction to a smooth plastic surface immediately after treatment and again after 30-60 minutes (to assess possible revival). […]
To terminate the treatment, the inner compartment with treated fish was lifted to the surface and drained, then fish were transferred directly and without water to a second basin with a lethal overdose of anaesthetic and left until dead. All lice remaining on these fish and lice that fell off in the anaesthetic bath were recorded. […]

Assay [2] has as its system azamethiphos- and deltamethrin-resistant sea lice. In words: In vitro bath exposure of isolated sea lice (Example 6). Particulars: registered approx. 20 h after end of exposure. The procedure: A trial was performed to ensure there was no cross-resistance between azamethiphos- and deltamethrin-resistant sea lice and neonicotinoids. Both pre-adult and adult stages (mobile stages) of both sexes were used, and they were equally distributed among groups. The sea lice were exposed to imidacloprid for 60 minutes, azamethiphos for 60 minutes and deltamethrin for 30 minutes in one litre baths at a range of concentrations (Tables 6, 7 and 8). The sea lice were transferred to clean aerated seawater after treatment. The temperature of the seawater during the experiment was 12° C., but during exposure the temperature raised to approx. 14° C. in regimes exposed for 60 min. (imidacloprid and azamethiphos) and to 13° C. for the regime exposed in 30 minutes (deltamethrin).
The numbers of live and immobilised (including killed) lice in each regime were registered approximately 20 h after end of exposure. Each louse was individually investigated.

Consider `COP(=O)(OC)SCn1c(=O)oc2cc(Cl)cnc21` [azamethiphos], for which the “% Removal” value in assay [1] (0.1 mg/l) was 3.0^33% and 3.8^52%. Moreover, the “% effect” value in assay [2] (5 ppm, 60 minutes exposure) was 0%; in assay [2] (10 ppm, 60 minutes exposure), 10%; in assay [2] (15 ppm, 60 minutes exposure) it was 0%; in assay [2] (20 ppm, 60 minutes exposure) it was 10% and 20%. Besides, the Immobilised in assay [2] (5 ppm, 60 minutes exposure) was 0; in assay [2] (10 ppm, 60 minutes exposure) it was 1; in assay [2] (15 ppm, 60 minutes exposure), 0; in assay [2] (20 ppm, 60 minutes exposure) it was 1 and 2. Moreover, the Live in assay [2] (5 ppm, 60 minutes exposure) is 10; in assay [2] (10 ppm, 60 minutes exposure), 9; in assay [2] (15 ppm, 60 minutes exposure), 10; in assay [2] (20 ppm, 60 minutes exposure) it was 9 and 8; in assay [2] (30 ppm, 60 minutes exposure) it was 9 and 6.
For the compound `CC1(C)[C@H](C(=O)O[C@H](C#N)c2cccc(Oc3ccccc3)c2)[C@@H]1C=C(Br)Br` [deltamethrin], in assay [1] (0.2 μl/l), the “% Removal” value is 0^37%. The “% effect” value was 0% in assay [2] (5 ppm, 30 minutes exposure); 20% and 10% in assay [2] (15 ppm, 30 minutes exposure); 20% and 10% in assay [2] (20 ppm, 30 minutes exposure). For the same compound, the Immobilised is 0 in assay [2] (5 ppm, 30 minutes exposure); 2 and 1 in assay [2] (15 ppm, 30 minutes exposure); 2 and 1 in assay [2] (20 ppm, 30 minutes exposure); 1 and 2 in assay [2] (30 ppm, 30 minutes exposure). Also, the Live in assay [2] (5 ppm, 30 minutes exposure) is 10; in assay [2] (10 ppm, 30 minutes exposure), 9 and 10; in assay [2] (15 ppm, 30 minutes exposure), 8 and 9; in assay [2] (20 ppm, 30 minutes exposure), 8 and 9; in assay [2] (30 ppm, 30 minutes exposure), 10 and 8.
